Measurements as given in US8461328B2, “Tricyclic heterocyclic compounds, compositions and methods of use thereof” (Genentech, Inc., priority 2010, dated 2013).

Key:
Type in all cases: biochemical
JAK2 = target: T1, JAK2 (Homo sapiens, UniProt O60674); assay: JAK2 inhibition (Table 4); conditions: read-out: JAK2 Ki
T1 construct: made in house; host or cells: SF9 insect cells (baculovirus)

TYK2 = target: T2, TYK2 (Homo sapiens, UniProt P29597); assay: TYK2 inhibition (Table 4)
T2 construct: made in house; host or cells: SF9 insect cells (baculovirus)
T2 sequence (P29597 873-1187): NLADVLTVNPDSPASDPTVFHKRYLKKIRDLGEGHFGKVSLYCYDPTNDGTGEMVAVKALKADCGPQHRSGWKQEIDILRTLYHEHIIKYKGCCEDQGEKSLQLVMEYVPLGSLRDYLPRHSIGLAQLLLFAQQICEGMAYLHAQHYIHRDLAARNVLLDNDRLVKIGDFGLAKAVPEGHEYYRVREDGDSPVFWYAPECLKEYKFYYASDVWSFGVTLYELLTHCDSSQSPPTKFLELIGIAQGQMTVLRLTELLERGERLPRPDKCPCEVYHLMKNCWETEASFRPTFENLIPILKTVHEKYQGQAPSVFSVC

JAK3 = target: T3, JAK3 (Homo sapiens, UniProt P52333); assay: JAK3 inhibition (Table 4); conditions: read-out: JAK3 Ki
T3 construct: made in house; host or cells: SF9 insect cells (baculovirus)
T3 sequence (P52333 783-1124): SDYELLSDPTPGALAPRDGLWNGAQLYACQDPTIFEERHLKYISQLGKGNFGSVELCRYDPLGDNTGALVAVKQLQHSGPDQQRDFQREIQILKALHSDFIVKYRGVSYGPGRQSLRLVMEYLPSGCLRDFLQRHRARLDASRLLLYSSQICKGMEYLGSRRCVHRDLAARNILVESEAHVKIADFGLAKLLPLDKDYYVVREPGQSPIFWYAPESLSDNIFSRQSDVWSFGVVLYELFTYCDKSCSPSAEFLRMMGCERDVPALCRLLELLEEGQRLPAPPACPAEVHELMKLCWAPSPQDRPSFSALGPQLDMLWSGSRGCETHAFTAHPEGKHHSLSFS

T1 sequence (O60674 812-1132): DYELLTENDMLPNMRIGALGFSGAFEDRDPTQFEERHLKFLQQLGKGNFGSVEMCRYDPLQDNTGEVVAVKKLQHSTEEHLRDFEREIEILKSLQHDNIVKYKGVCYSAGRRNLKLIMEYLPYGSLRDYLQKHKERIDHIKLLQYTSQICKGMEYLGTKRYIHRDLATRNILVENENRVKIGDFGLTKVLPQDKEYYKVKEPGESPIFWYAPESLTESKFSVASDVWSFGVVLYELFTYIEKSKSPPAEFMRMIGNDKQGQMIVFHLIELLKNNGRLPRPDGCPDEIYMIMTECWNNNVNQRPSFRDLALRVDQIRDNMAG

| Ki (JAK2) [nM] | Ki (TYK2) [nM] | Ki (JAK3) [nM] | Structure (SMILES) |
| --- | --- | --- | --- |
| 20 | 216 | 132 | CC(C)(C)OC(=O)N[C@H]1CC[C@H](n2cnc3cnc4[nH]ccc4c32)CC1 [Example 107, Trans [4-(6H-1,3,5,6-tetraaza-as-indacen-1-yl)-cyclohexyl]-carbamic acid tert-butyl ester] |
| 24.6 | 75.2 | 35 | N[C@H]1CC[C@H](n2cnc3cnc4[nH]ccc4c32)CC1 [Example 108, Trans 4-(6H-1,3,5,6-tetraaza-as-indacen-1-yl)-cyclohexylamine] |
| 4.21 | 62.4 | 32.8 | CC(C)(C)OC(=O)N[C@@H]1CC[C@@H](n2cnc3cnc4[nH]ccc4c32)C1 [Example 134, [(1R,3R)-3-(6H-1,2,3,5,6-Tetraaza-as-indacen-1-yl)-cyclopentyl]-carbamic acid tert-butyl ester] |
| 20.3 | 161 | 90.6 | CC(C)(C)OC(=O)N[C@@H]1CC[C@H](n2cnc3cnc4[nH]ccc4c32)C1 [Example 135, [(1R,3S)-3-(6H-1,2,3,5,6-Tetraaza-as-indacen-1-yl)-cyclopentyl]-carbamic acid tert-butyl ester] |
| 18.3 | 147 | 291 | CC(C)(C)OC(=O)N[C@H]1CC[C@@H](n2cnc3cnc4[nH]ccc4c32)C1 [Example 136, [(1S,3R)-3-(6H-1,2,3,5,6-Tetraaza-as-indacen-1-yl)-cyclopentyl]-carbamic acid tert-butyl ester] |
| 7.03 | 51.2 | 182 | COC(=O)N(C)[C@H]1CC[C@H](n2cnc3cnc4[nH]ccc4c32)CC1 [Example 143, Trans Methyl-[4-(6H-1,2,3,5,6-tetraaza-as-indacen-1-yl)-cyclohexyl]-carbamic acid methyl ester] |
| 4.6 | 19.2 | 38.1 | FC(F)(F)CN1CCC(n2cnc3cnc4[nH]ccc4c32)CC1 [Example 175, 1-[1-(2,2,2-Trifluoro-ethyl)-piperidin-4-yl]-1,6-dihydro-1,2,3,5,6-tetraaza-as-indacene] |
| 45.4 | 19.3 | 75.1 | CS(=O)(=O)NCc1nc2cnc3[nH]ccc3c2n1C1CCCCC1 [Example 200, N-(1-Cyclohexyl-1,6-dihydro-1,2,3,5,6-tetraaza-as-indacen-2-ylmethyl)-methanesulfonamide] |
| 44.6 | 831 | 60.3 | CS(=O)(=O)NCc1nc2cnc3[nH]ccc3c2n1C1CCN(Cc2ccccc2)CC1 [Example 202, N-[1-(1-Benzyl-piperidin-4-yl)-1,6-dihydro-1,2,3,5,6-tetraaza-as-indacen-2-ylmethyl]-methanesulfonamide] |
| 812 | 565 | 3050 | CS(=O)(=O)NCc1nc2cnc3[nH]ccc3c2n1C1CCNCC1 [Example 206, N-(1-Piperidin-4-yl-1,6-dihydro-1,2,3,5,6-tetraaza-as-indacen-2-ylmethyl)-methanesulfonamide] |
| 43.1 | 151 | 171 | CS(=O)(=O)NCc1nc2cnc3[nH]ccc3c2n1C1CCN(CCC#N)CC1 [Example 208, N-{1-[1-(2-Cyano-ethyl)-piperidin-4-yl]-1,6-dihydro-1,2,3,5,6-tetraaza-as-indacen-2-ylmethyl}-methanesulfonamide] |
| 11.2 | 37.3 | 89 | N#Cc1cccc(CN[C@H]2CC[C@H](n3cnc4cnc5[nH]ccc5c43)CC2)c1 [Example 219, 3-{[4-(6H-1,3,5,6-Tetraaza-as-indacen-1-yl)-cyclohexylamino]-methyl}-benzonitrile] |
| 285 | 973 | 1280 | CN1CCC[C@@H]1C(=O)N1CCC(n2cnc3cnc4[nH]ccc4c32)CC1 [Example 252, ((R)-1-Methyl-pyrrolidin-2-yl)-[4-(6H-1,3,5,6-tetraaza-as-indacen-1-yl)-piperidin-1-yl]-methanone] |
